Where two headings read alike, the source gives them in different places.
Target: T1, full-length SARM1 (FL-SARM1) (Homo sapiens, UniProt Q6SZW1)
T1 sequence (Q6SZW1 28-724): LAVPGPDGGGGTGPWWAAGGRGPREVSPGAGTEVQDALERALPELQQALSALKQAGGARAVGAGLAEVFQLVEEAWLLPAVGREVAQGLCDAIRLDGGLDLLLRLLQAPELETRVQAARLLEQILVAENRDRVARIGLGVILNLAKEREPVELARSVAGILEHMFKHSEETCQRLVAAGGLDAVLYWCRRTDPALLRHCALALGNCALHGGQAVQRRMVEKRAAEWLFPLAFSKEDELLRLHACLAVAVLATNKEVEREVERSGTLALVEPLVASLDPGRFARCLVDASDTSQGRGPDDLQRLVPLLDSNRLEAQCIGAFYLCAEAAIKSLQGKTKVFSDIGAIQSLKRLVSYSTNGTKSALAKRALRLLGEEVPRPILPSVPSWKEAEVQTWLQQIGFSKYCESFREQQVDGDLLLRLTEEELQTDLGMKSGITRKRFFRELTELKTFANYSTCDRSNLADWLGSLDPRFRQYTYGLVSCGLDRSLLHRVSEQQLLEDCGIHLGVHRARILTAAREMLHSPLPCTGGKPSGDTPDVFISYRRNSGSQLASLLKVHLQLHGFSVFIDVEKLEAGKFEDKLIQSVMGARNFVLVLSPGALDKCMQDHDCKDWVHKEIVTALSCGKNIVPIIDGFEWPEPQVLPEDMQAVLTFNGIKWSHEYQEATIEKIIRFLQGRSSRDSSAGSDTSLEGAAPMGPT
Assay: FL-SARM1 cellular lysate assay (NAD/NADH-Glo detection of remaining NAD+, NMN-activated)

[1] = Activity (μM) (IC50), 11 point curve
[2] = read-out: Activity (IC50 class), 11 point curve
[3] = Activity (IC50 class), 11 point curve

Experimental: Preparation of full-length SARM1 (FL-SARM1) lysate: HEK293T cells (ATCC: CRL-3216) were grown on 150 mm TC-treated dishes to 80-90% confluency in complete DMEM (DMEM (Thermo Fisher: 11965175) supplemented with 10% HI—FBS (VWR: 10802-772), 1× Pen/Strep (Thermo Fisher: 15140122), 1×NEAA (Thermo Fisher: 1140050), 1× glutamax (Thermo Fisher: 35050061), and 1 mM sodium pyruvate (Thermo Fisher: 11360070)) at 37° C. and 5% CO2. One hour prior to transfection, the media was replaced with fresh, 37° C. complete DMEM (20 mL per one 150 mm dish) supplemented with additional 10 mM glucose (Alfa Aesar AAJ60067EQE). Per one 150 mm dish, 30 μg FL-SARM1 (SEQ. ID. 1; cloned in-house) plasmid was dissolved in 1 mL DMEM at ambient temperature and were mixed by inverting the tube 8-10 times. 90 μL of GenJet™ in vitro DNA transfection reagent (Ver2) was dissolved in 1 mL DMEM at ambient temperature and were mixed by inverting the tube 8-10 times. The plasmid and transfection agent solutions were combined, mixed by 8-10 inversions and incubated for 10 minutes at ambient temperature. 2 mL of this transfection mixture was added to each dish containing HEK293T cells as prepared above followed by a gentle mixing of 4-5 horizontal rotations. The dishes were incubated at 37° C. and 5% CO2 for 24 h. The dishes were removed from the incubator, the medium was aspirated and the cells were scraped off using cell scrapers in ice-cold 1×PBS (5 mL/dish, Thermo Fisher Scientific 10010023). The collected cells were centrifuged at 300 g for 5 minutes at 4° C. The supernatant was aspirated and the pellet was frozen at −80° C. until needed. The cell pellet from 30 dishes was dissolved in 30 mL 1×PBS supplemented with 4 tablets of Complete, Mini EDTA-free protease inhibitor cocktail at 4° C. This mixture was sonicated on ice for 10 minutes at 50% amplitude with a 1 second on/1 second off interval using a Model 120 sonicator (Thermo Fisher Scientific, FB120110). The lysate was centrifuged at 16000 g for 10 minutes at 4° C.
To a white 384-well Proxiplate (PerkinElmer, PE-6008280) was added 50 nL/well of a DMSO solution containing test compounds followed by 7.5 μL/well of a 0.067 mg/mL solution of SARMi cellular lysate in reaction buffer (DPBS containing CHAPSO (0.1%) and fatty acid free BSA (0.032%)). The plate was centrifuged for 1 minute at 1000 RPM and then placed in an incubator at 23° C. for 15 minutes. To the wells were added 2.5 μL/well of a solution containing 40 M NAD^+ and 4 mM nicotinamide mononucleotide (NMN) in reaction buffer. The plate was centrifuged for 1 min at 1000 RPM, the plate was sealed and placed in an incubator at 23° C. for 3.5 hours before adding 3.5 μL/well of NAD/NADH-Glo™ solution (preparation as described by Promega using the extended detection protocol). The plate was centrifuged for 1 minute at 1000 RPM and then incubated at 23° C. for 20 minutes. 1 μL/well of a 3.625 mM solution of menadione in DMSO was added and the plate was centrifuged for 1 minute at 1000 RPM. Relative light units (RLU) were recorded using an Envision plate reader at a height of 6.5 mm.
IC50 values were calculated from an 11 point curve using ½ log dilutions using a four-parameter logistic regression curve fit.

SMILES | IC50 [1] [µM] | IC50 [2] [µM] | IC50 [3] [µM]
Cc1ccc(NC(=O)N2CCCC(C)CC2)cc1-c1ncc(F)cn1 (racemic) [Example 213, N-(3-(5-fluoropyrimidin-2-yl)-4-methylphenyl)-4-methylazepane-1-carboxamide] | 0.2 | 0.0001 to 1 | –
COc1ccc(-c2cc(NC(=O)[C@@H]3CC3(F)F)ccc2C)nc1 [Example 152, (1S)-2,2-difluoro-N-[3-(5-methoxypyridin-2-yl)-4-methylphenyl]cyclopropane-1-carboxamide] | 3.6 | – | 1 to 10
CO[C@H]1CCCN(C(=O)Nc2ccc(C(F)(F)F)c(-c3ncc(F)cn3)c2)CC1 [Example 307, (S)-N-(3-(5-fluoropyrimidin-2-yl)-4-(trifluoromethyl)phenyl)-4-methoxyazepane-1-carboxamide] | 13 | – | > 10
Cc1ccc(NC(=O)N2C[C@@H]3CCC[C@@H]32)cc1-c1ncc(F)cn1 (racemic) [Example 222, N-[3-(5-fluoropyrimidin-2-yl)-4-methylphenyl]-6-azabicyclo[3.2.0]heptane-6-carboxamide] | 3.4 | – | 1 to 10
Cc1ccc(NC(=O)[C@H]2C[C@H]3C[C@H]3N2c2nccnn2)cc1-c1ncc(F)cn1 [Example 262, (1R,3R,5R)-N-(3-(5-fluoropyrimidin-2-yl)-4-methylphenyl)-2-(1,2,4-triazin-3-yl)-2-azabicyclo[3.1.0]hexane-3-carboxamide] | 2.5 | – | 1 to 10
CC[C@H]1C[C@@H]1C(=O)Nc1ccc(C)c(-c2ccccn2)c1 (racemic) [Example 108, trans-2-ethyl-N-(4-methyl-3-pyridin-2-ylphenyl)cyclopropane-1-carboxamide] | 1.1 | – | 1 to 10
Cc1ccc(NC(=O)N2[C@@H]3C[C@H](C)C[C@H]2C3)cc1-c1ccccn1 [Example 10, trans-3-Methyl-N-(4-methyl-3-(pyridin-2-yl)phenyl)-6-azabicyclo[3.1.1]heptane-6-carboxamide] | 0.01 | 0.0001 to 1 | –
C[C@@H]1C[C@@H]2C[C@H](C1)N2C(=O)Nc1cc(-c2cccnn2)c(C(F)(F)F)cc1F [Example 245, cis-N-[2-fluoro-5-pyridazin-3-yl-4-(trifluoromethyl)phenyl]-3-methyl-6-azabicyclo[3.1.1]heptane-6-carboxamide] | 0.2 | 0.0001 to 1 | –
O=C(Nc1ccc(-c2ccccc2)c(-c2ccccn2)c1)[C@@H]1CC1(F)F [Example 148, (1S)-2,2-difluoro-N-(4-phenyl-3-pyridin-2-ylphenyl)cyclopropane-1-carboxamide] | 38 | – | > 10
Cc1ccc(NC(=O)N2C[C@@H]3CCCC[C@@H]32)cc1-c1ncc(F)cn1 (racemic) [Example 226, N-[3-(5-fluoropyrimidin-2-yl)-4-methylphenyl]-7-azabicyclo[4.2.0]octane-7-carboxamide] | 1.5 | – | 1 to 10
Cc1cc(F)c(NC(=O)N2C3C[C@@H](C4CC4)C[C@H]2C3)cc1-c1cccnn1 [Example 241, cis-3-cyclopropyl-N-(2-fluoro-4-methyl-5-pyridazin-3-ylphenyl)-6-azabicyclo[3.1.1]heptane-6-carboxamide] | 0.09 | 0.0001 to 1 | –
Cc1ccc(NC(=O)N2C3C[C@@H](C)C[C@H]2C3)cc1-c1cc(F)ccn1 [Example 224, cis-N-[3-(4-fluoropyridin-2-yl)-4-methylphenyl]-3-methyl-6-azabicyclo[3.1.1]heptane-6-carboxamide] | 0.04 | 0.0001 to 1 | –
Cc1ccc(NC(=O)C2CCC2C)cc1-c1ccccn1 (centres unmarked) [Example 112, 2-methyl-N-(4-methyl-3-pyridin-2-ylphenyl)cyclobutane-1-carboxamide] | 1.7 | – | 1 to 10
Cc1ccc(NC(=O)N2CCCC2c2ncccn2)cc1-c1ccccn1 (racemic) [Example 91, N-(4-methyl-3-pyridin-2-ylphenyl)-2-pyrimidin-2-ylpyrrolidine-1-carboxamide] | 16 | – | > 10
COc1cccc(-c2cc(NC(=O)[C@@H]3CC3(F)F)ccc2C)n1 [Example 153, (1S)-2,2-difluoro-N-[3-(6-methoxypyridin-2-yl)-4-methylphenyl]cyclopropane-1-carboxamide] | 18 | – | > 10
Cc1ccc(NC(=O)[C@@H]2C[C@H](C(F)(F)F)CN2c2ncccn2)cc1-c1cccnn1 [Example 174, (2S,4S)—N-(4-methyl-3-(pyridazin-3-yl)phenyl)-1-(pyrimidin-2-yl)-4-(trifluoromethyl)pyrrolidine-2-carboxamide] | 25 | – | > 10

SMILES | IC50 [1] [µM] | IC50 [2] [µM] | IC50 [3] [µM]
Cc1ccc(NC(=O)N2C3C[C@H](C)C[C@@H]2C3)cc1-c1ncc(F)cn1 [Example 51, cis-N-(3-(5-fluoropyrimidin-2-yl)-4-methylphenyl)-3-methyl-6-azabicyclo[3.1.1]heptane-6-carboxamide] | 0.01 | 0.0001 to 1 | –
Cc1ccc(NC(=O)N2CC[C@@H]3[C@@H](C)[C@@H]3C2)cc1-c1ccccn1 (racemic) [Example 37, trans-7-methyl-N-(4-methyl-3-(pyridin-2-yl)phenyl)-3-azabicyclo[4.1.0]heptane-3-carboxamide] | 0.1 | 0.0001 to 1 | –
Cc1ccc(NC(=O)N2C3C[C@@H](C)C[C@H]2C3)cc1-c1cncc(F)n1 [Example 231, cis-N-[3-(6-fluoropyrazin-2-yl)-4-methylphenyl]-3-methyl-6-azabicyclo[3.1.1]heptane-6-carboxamide] | 0.08 | 0.0001 to 1 | –
Cc1ccc(NC(=O)CC2CCC2)cc1-c1ncccc1F [Example 165, 2-cyclobutyl-N-[3-(3-fluoropyridin-2-yl)-4-methylphenyl]acetamide] | 5.3 | – | 1 to 10
CO[C@@H]1C[C@@H]2C[C@H](C1)N2C(=O)Nc1ccc(C)c(-c2ccccn2)c1 [Example 41, cis-3-methoxy-N-(4-methyl-3-(pyridin-2-yl)phenyl)-6-azabicyclo[3.1.1]heptane-6-carboxamide] | 0.5 | 0.0001 to 1 | –
Cc1ccc(NC(=O)[C@@H]2[C@@H]3CC[C@H]2N(CC(F)(F)F)C3)cc1-c1ccccn1 (single isomer, unassigned) [Example 104, trans-N-(4-methyl-3-(pyridin-2-yl)phenyl)-2-(2,2,2-trifluoroethyl)-2-azabicyclo[2.2.1]heptane-7-carboxamide] | 2.6 | – | 1 to 10
Cc1cc(NC(=O)N2C3CCCC2C3)cc(-c2ccccn2)c1C [Example 71, N-(3,4-dimethyl-5-(pyridin-2-yl)phenyl)-6-azabicyclo[3.1.1]heptane-6-carboxamide] | 10.9 | – | > 10
Cc1ccc(NC(=O)C2CCCC2C)cc1-c1ccccn1 (centres unmarked) [Example 114, 2-methyl-N-(4-methyl-3-pyridin-2-ylphenyl)cyclopentane-1-carboxamide] | 0.7 | 0.0001 to 1 | –
Cc1ccc(NC(=O)C2CC(C(F)(F)F)C2)cc1-c1ccccn1 (mixture of isomers) [Example 130, N-(4-methyl-3-pyridin-2-ylphenyl)-3-(trifluoromethyl)cyclobutane-1-carboxamide] | 2.6 | – | 1 to 10
Cc1ccc(NC(=O)[C@@H]2C[C@@H]2c2ccccc2)cc1-c1cccnn1 [Example 299, (1R,2S)-N-(4-methyl-3-pyridazin-3-ylphenyl)-2-phenylcyclopropane-1-carboxamide] | 14 | – | > 10
Cc1ccc(NC(=O)N2C3C[C@@H](C#N)C[C@@H]2C3)cc1-c1ccccn1 [Example 75, trans-3-cyano-N-(4-methyl-3-(pyridin-2-yl)phenyl)-6-azabicyclo[3.1.1]heptane-6-carboxamide] | 0.4 | 0.0001 to 1 | –
O=C(Nc1ccc(C(F)(F)F)c(-c2ccccn2)c1)[C@@H]1CC1(F)F [Example 150, (1S)-2,2-difluoro-N-[3-pyridin-2-yl-4-(trifluoromethyl)phenyl] cyclopropane-1-carboxamide] | 3.7 | – | 1 to 10
Cc1c(-c2ncc(F)cn2)cc(NC(=O)N2C3CCCC2C3)c(F)c1F [Example 250, N-[2,3-difluoro-5-(5-fluoropyrimidin-2-yl)-4-methylphenyl]-6-azabicyclo[3.1.1]heptane-6-carboxamide] | 1.5 | – | 1 to 10
COc1nccnc1-c1cc(NC(=O)N2[C@@H]3C[C@@H](C)C[C@H]2C3)ccc1C [Example 219, cis-N-[3-(3-methoxypyrazin-2-yl)-4-methylphenyl]-3-methyl-6-azabicyclo[3.1.1]heptane-6-carboxamide] | 1 | – | 1 to 10
Cc1ccc(NC(=O)[C@H]2CC[C@@H](C)N2c2ncccn2)cc1-c1ncc(F)cn1 [Example 287, (2R,5R)-N-[3-(5-fluoropyrimidin-2-yl)-4-methylphenyl]-5-methyl-1-pyrimidin-2-ylpyrrolidine-2-carboxamide] | 2.1 | – | 1 to 10

From patent US20250171462A1 (NICO Therapeutics, Inc., priority 2022, published 2025)
